Measurements as given in US20220105058A1, “USE OF 3-O-SULFAMATE-16,16-DIMETHYL-D-HOMOEQUILENIN TO TREAT ONCOLOGICAL DISEASES” (priority 2018, published 2022).
“Also recorded” adds a separate entry of the source. Read-outs that look alike come from different tables or passages of the source. Marks after values point to notes of the source that are not given here.

Key:
[1] = tested on: MCF-7 human cells culture (breast adenocarcinoma); test: proliferation of passaged MCF-7 cell culture; assay type: cell-based
Protocol: The study analysis was carried out on an passaged MCF-7 human cells culture culture (breast adenocarcinoma). Normal human dermal fibroblasts (HDF) of early passages were used as a negative control. The cells were cultivated in Carrel vials in DMEM/F12 medium (Biolot) with 1.0% of antibiotic-free fetal bovine embryonic serum (Biolot) added in the 5% CO2 atmosphere, at 37° C.
The cells were seeded on Carrel vials at 50×10^4 cells per flask. To study the proliferative activity of the cells under conditions of sulfatase inhibition, 24 hours after seeding the culture medium […], and then these tumor cell lines were incubated for various periods of time (24 to 72 hrs). The inhibitor was dissolved in DMSO. […] To exclude the cytotoxic effect of DMSO, a control sample comprising DMSO without sulfatase inhibitor was prepared. To exclude nonspecific detrimental effects of the compounds, normal human skin fibroblasts were used. Then the cells were detached with the versene-trypsin solution (Biolot), plated onto Carrel vials containing a fresh complete culture medium. The cells were counted when untreated control cells reached the maximum cell density per unit of surface area of a culture flask (monolayer), and their number was set as 100%. The proliferative activity of all of the studied cell cultures exposed to sulfatase inhibitors was determined in triplicate.

[2] = tested on: uterine body without horns; test: uterine body weight (hormonal effect) on Day 28; assay type: in vivo, FVB mice transgenic for HER-2/neu; settings: for Uterine body weight: Day 28; for uterotropic activity / hormonal effect: mouse, in vivo
Protocol: To estimate the hormonal effect of the medicament, the weight of uterine body without horns was measured on Day 28 of the observation period (Table 9).

[3] = tested on: Breast tumors (BT) in female FBV/N mice transgenic for HER-2/neu; test: antitumor activity in mice with HER-2/neu breast tumors; assay type: in vivo, FVB mice transgenic for HER-2/neu; settings: for average total volume of tumors, % changes from baseline / average volume of tumors, % changes from baseline: 28 days; for Total number of new tumors: end of experiment; for frequency of tumor stabilizations: end of observation; for antitumor efficacy compared with Tamoxifen: mouse, in vivo
Text: The age of animals at the beginning of the study was 21-41 weeks and weight was 25-30 g.
The control groups were given the olive oil (placebo).
TGI=(Vctrl−Vexp)/Vctrl×100(%),

[4] = body weight and tolerability during the antitumor study; settings: for average body weight of mice (M): Tamoxifen 4.0 mg/kg i.g. daily; for Body weight: Tamoxifen 4 mg/kg
Protocol: The study medicament was administered i.g. using a metal atraumatic gavage (with the procedure corresponds to the oral route of administration in clinical settings). The medicament was administered in a single daily dose (20 mg/kg of body weight) and 5-fold daily dose of 100 mg/kg of body weight. Ex tempore solutions of the medicament for administration were prepared in olive oil (refined olive oil supplemented with unrefined extra virgin olive oil available under Global Village “Clasico” trademark, lot L:183351116, expiry date 26 Apr. 2020, BAIEO, Spain). The administered volume was 0.1 ml per 10 g of a mouse body weight (0.2 ml of a ready-to-use formulation for a mouse of 20 g). The medicament administration was started 24 hours after the randomization. The duration of the administration course was 27-28 days.
This dose corresponds to a human daily dose of 20 mg/kg.
The evaluation criteria included the clinical observation data, animals body weights, time of death (if applicable), tumor growth over time, pathomorphological examination data (verification of a neoplasm during autopsy, assessment of toxic effects by macroscopic presentation of changes in the internal organs).
The animals body weights were recorded before the first administration of the medicaments and then twice per week using a verified high-speed electronic laboratory balance Ohaus Scout Pro (USA) with a maximum load of 2000 g and a measurement step of 0.1 g.

CC/C(=C(\c1ccccc1)c1ccc(OCCN(C)C)cc1)c1ccccc1 [Tamoxifen]
proliferation of tumor MCF-7 cells [1]: inhibited to the same extent
Uterine body weight ([2]; Tamoxifen 4 mg/kg, All mice): 28 ± 1 mg
Uterine body weight ([2]; Tamoxifen 4 mg/kg, estrus (E-9)): 28 ± 1 mg
Average volume of new tumors at the end of observation period (M) ([3]; Tamoxifen 4 mg/kg): 0.20 cm^3
average total volume of tumors, % changes from baseline ([3]; Tamoxifen 4 mg/kg): 338%
average volume of tumors, % changes from baseline ([3]; Tamoxifen 4 mg/kg): 338%
TGI (average total tumor volume) ([3]; Tamoxifen 4 mg/kg, Day 0): 44%
TGI (average tumor volume) ([3]; Tamoxifen 4 mg/kg, Day 0): 24%
average total volume of tumors in mice (M) ([3]; Tamoxifen 4 mg/kg, Day 0): 1.26 cm^3
average volume of tumors (M) ([3]; Tamoxifen 4 mg/kg, Day 0): 0.29 cm^3
TGI (average total tumor volume) ([3]; Tamoxifen 4 mg/kg, Day 7): 33%
TGI (average tumor volume) ([3]; Tamoxifen 4 mg/kg, Day 7): 8%
average total volume of tumors in mice (M) ([3]; Tamoxifen 4 mg/kg, Day 7): 2.01 cm^3
average volume of tumors (M) ([3]; Tamoxifen 4 mg/kg, Day 7): 0.46 cm^3
TGI (average total tumor volume) ([3]; Tamoxifen 4 mg/kg, Day 14): 32%
TGI (average tumor volume) ([3]; Tamoxifen 4 mg/kg, Day 14): 7%
average total volume of tumors in mice (M) ([3]; Tamoxifen 4 mg/kg, Day 14): 2.84 cm^3
average volume of tumors (M) ([3]; Tamoxifen 4 mg/kg, Day 14): 0.65 cm^3
TGI (average total tumor volume) ([3]; Tamoxifen 4 mg/kg, Day 21): 36%
TGI (average tumor volume) ([3]; Tamoxifen 4 mg/kg, Day 21): 12%
average total volume of tumors in mice (M) ([3]; Tamoxifen 4 mg/kg, Day 21): 3.23 cm^3
average volume of tumors (M) ([3]; Tamoxifen 4 mg/kg, Day 21): 0.75 cm^3
TGI (average total tumor volume) ([3]; Tamoxifen 4 mg/kg, Day 28): 5%
TGI (average tumor volume) ([3]; Tamoxifen 4 mg/kg, Day 28): −31%
average total volume of tumors in mice (M) ([3]; Tamoxifen 4 mg/kg, Day 28): 5.52 cm^3
average volume of tumors (M) ([3]; Tamoxifen 4 mg/kg, Day 28): 1.27* cm^3
Total number of new tumors ([3]; Tamoxifen 4 mg/kg): 32
frequency of tumor stabilizations ([3]; Tamoxifen 4 mg/kg): 3%
average body weight of mice (M) ([4]; Day 0): 31.0 g
average body weight of mice (M) ([4]; Day 7): 32.0 g
average body weight of mice (M) ([4]; Day 14): 32.9 g
average body weight of mice (M) ([4]; Day 21): 32.8 g
average body weight of mice (M) ([4]; Day 28): 34.2 g
Body weight ([4]; Day 28, All mice): 34.2 ± 1.4 g
Body weight ([4]; Day 28, estrus (E-9)): 34.2 ± 1.4 g

CC1(C)CC(=O)[C@@]2(C)CCc3c(ccc4cc(OS(N)(=O)=O)ccc34)[C@@H]2C1 [medicament, 3-O-sulfamate-16,16-dimethyl-D-homoequilenin]
proliferation of tumor MCF-7 cells [1]: completely inhibits proliferation
proliferation of tumor MCF-7 cells ([1]; concentration of 20 μg/ml): completely blocks the proliferation
Uterine body weight ([2]; medicament 20 mg/kg, All mice): 27 ± 5 mg
Uterine body weight ([2]; medicament 20 mg/kg, diestrus (D-7)): 19 ± 3 mg
Uterine body weight ([2]; medicament 20 mg/kg, estrus (E-3)): 45 ± 7 mg
Uterine body weight ([2]; medicament 100 mg/kg, All mice): 26 ± 6 mg
Uterine body weight ([2]; medicament 100 mg/kg, diestrus (D-8)): 19 ± 4 mg
Uterine body weight ([2]; medicament 100 mg/kg, estrus (E-2)): 50 ± 10 mg
uterotropic activity / hormonal effect [2]: No significant differences; also recorded: no uterotropic activity
uterotropic activity / hormonal effect ([2]; listed as compound): absence of uterotropic activity
Average volume of new tumors at the end of observation period (M) ([3]; medicament 20 mg/kg): 0.15 cm^3
average total volume of tumors, % changes from baseline ([3]; medicament 20 mg/kg): 106%
average volume of tumors, % changes from baseline ([3]; medicament 20 mg/kg): 103%
TGI (average total tumor volume) ([3]; medicament 20 mg/kg, Day 0): 25%
TGI (average tumor volume) ([3]; medicament 20 mg/kg, Day 0): 8%
average total volume of tumors in mice (M) ([3]; medicament 20 mg/kg, Day 0): 1.69 cm^3
average volume of tumors (M) ([3]; medicament 20 mg/kg, Day 0): 0.35 cm^3
relative change of the average total volume to that of Day − 1 (M) ([3]; medicament 20 mg/kg, Day 0): 0%
TGI (average total tumor volume) ([3]; medicament 20 mg/kg, Day 7): 36%
TGI (average tumor volume) ([3]; medicament 20 mg/kg, Day 7): 22%
average total volume of tumors in mice (M) ([3]; medicament 20 mg/kg, Day 7): 1.93 cm^3
average volume of tumors (M) ([3]; medicament 20 mg/kg, Day 7): 0.39 cm^3
relative change of the average total volume to that of Day − 1 (M) ([3]; medicament 20 mg/kg, Day 7): 19%
TGI (average total tumor volume) ([3]; medicament 20 mg/kg, Day 14): 36%
TGI (average tumor volume) ([3]; medicament 20 mg/kg, Day 14): 21%
average total volume of tumors in mice (M) ([3]; medicament 20 mg/kg, Day 14): 2.67* cm^3
average volume of tumors (M) ([3]; medicament 20 mg/kg, Day 14): 0.55 cm^3
relative change of the average total volume to that of Day − 1 (M) ([3]; medicament 20 mg/kg, Day 14): 64^a %
TGI (average total tumor volume) ([3]; medicament 20 mg/kg, Day 21): 38%
TGI (average tumor volume) ([3]; medicament 20 mg/kg, Day 21): 25%
average total volume of tumors in mice (M) ([3]; medicament 20 mg/kg, Day 21): 3.15** cm^3
average volume of tumors (M) ([3]; medicament 20 mg/kg, Day 21): 0.64 cm^3
relative change of the average total volume to that of Day − 1 (M) ([3]; medicament 20 mg/kg, Day 21): 91^aa %
TGI (average total tumor volume) ([3]; medicament 20 mg/kg, Day 28): 40%
TGI (average tumor volume) ([3]; medicament 20 mg/kg, Day 28): 27%
average total volume of tumors in mice (M) ([3]; medicament 20 mg/kg, Day 28): 3.48**^a cm^3
average volume of tumors (M) ([3]; medicament 20 mg/kg, Day 28): 0.71* cm^3
relative change of the average total volume to that of Day − 1 (M) ([3]; medicament 20 mg/kg, Day 28): 107*^aa %
Total number of new tumors ([3]; medicament 20 mg/kg): 23
frequency of tumor stabilizations ([3]; medicament 20 mg/kg): 22%
Average volume of new tumors at the end of observation period (M) ([3]; medicament 100 mg/kg): 0.12* cm^3
average total volume of tumors, % changes from baseline ([3]; medicament 100 mg/kg): 59%
average volume of tumors, % changes from baseline ([3]; medicament 100 mg/kg): 60%
TGI (average total tumor volume) ([3]; medicament 100 mg/kg, Day 0): 25%
TGI (average tumor volume) ([3]; medicament 100 mg/kg, Day 0): 8%
average total volume of tumors in mice (M) ([3]; medicament 100 mg/kg, Day 0): 1.70 cm^3
average volume of tumors (M) ([3]; medicament 100 mg/kg, Day 0): 0.35 cm^3
relative change of the average total volume to that of Day − 1 (M) ([3]; medicament 100 mg/kg, Day 0): 0%
TGI (average total tumor volume) ([3]; medicament 100 mg/kg, Day 7): 41%
TGI (average tumor volume) ([3]; medicament 100 mg/kg, Day 7): 26%
average total volume of tumors in mice (M) ([3]; medicament 100 mg/kg, Day 7): 1.79 cm^3
average volume of tumors (M) ([3]; medicament 100 mg/kg, Day 7): 0.37 cm^3
relative change of the average total volume to that of Day − 1 (M) ([3]; medicament 100 mg/kg, Day 7): 1^a %
TGI (average total tumor volume) ([3]; medicament 100 mg/kg, Day 14): 45%
TGI (average tumor volume) ([3]; medicament 100 mg/kg, Day 14): 31%
average total volume of tumors in mice (M) ([3]; medicament 100 mg/kg, Day 14): 2.30* cm^3
average volume of tumors (M) ([3]; medicament 100 mg/kg, Day 14): 0.48 cm^3
relative change of the average total volume to that of Day − 1 (M) ([3]; medicament 100 mg/kg, Day 14): 38^a %
TGI (average total tumor volume) ([3]; medicament 100 mg/kg, Day 21): 46%
TGI (average tumor volume) ([3]; medicament 100 mg/kg, Day 21): 33%
average total volume of tumors in mice (M) ([3]; medicament 100 mg/kg, Day 21): 2.75** cm^3
average volume of tumors (M) ([3]; medicament 100 mg/kg, Day 21): 0.57* cm^3
relative change of the average total volume to that of Day − 1 (M) ([3]; medicament 100 mg/kg, Day 21): 75^aa %
TGI (average total tumor volume) ([3]; medicament 100 mg/kg, Day 28): 53%
TGI (average tumor volume) ([3]; medicament 100 mg/kg, Day 28): 42%
average total volume of tumors in mice (M) ([3]; medicament 100 mg/kg, Day 28): 2.71**^a cm^3
average volume of tumors (M) ([3]; medicament 100 mg/kg, Day 28): 0.56**^a cm^3
relative change of the average total volume to that of Day − 1 (M) ([3]; medicament 100 mg/kg, Day 28): 69**^aa %
Total number of new tumors ([3]; medicament 100 mg/kg): 15
frequency of tumor stabilizations ([3]; medicament 100 mg/kg): 27%
frequency of tumor stabilizations ([3]; medicament 100 mg/kg, listed as compound): 27%
antitumor efficacy compared with Tamoxifen [3]: statistically significantly more effective
antitumor efficacy compared with Tamoxifen ([3]; listed as agent): inhibits the proliferation of tumours more effectively
signs of toxic damage to internal organs at autopsy ([4]; end of the experiment): No specific signs of toxic damage to internal organs were found
clinical signs of toxicity ([4]; mouse, in vivo): no clinical signs of toxicity being observed
